From publication PMC1716192, “A Plant-Derived Morphinan as a Novel Lead Compound Active against Malaria Liver Stages” (PLoS Medicine, 2006)
Entries after “also recorded” stand apart in the source; their conditions may differ.

Assays:
[1] = test system: P. yoelii blood stages; assay: In vivo assay: P. yoelii blood stages in mice
Protocol: In order to test for inhibitory activity against P. yoelii blood stages, four groups of five naive mice were inoculated (intraperitoneally) with 10^6 P. yoelii–infected red blood cells on day 0. Three hours later, one group was treated with tazopsine at 100 mg/kg, another with NCP-tazopsine at 200 mg/kg, whereas the other two groups acted as controls (respectively, water and 10% Tween 80). The doses were repeated daily until day +3. For the group treated with NCP- tazopsine and its control group, the animals were anesthetised 2 h following the administration of the last dose (day +3), and placed for 30 min over a cage with 100 female laboratory-bred A. stephensi. Oocysts were enumerated in 30 mosquito midguts dissected 8 d later, and the number of sporozoites in the salivary glands dissected from 30 insects was ascertained a further 7 d later. All the experiments were performed in two independent duplicates, and enumeration of parasites in blood smears and mosquitoes was conducted in a blinded fashion.

[2] = Oral toxicity in mice
[3] = test system: P. yoelii (265 BY strain) sporozoites; assay: In vivo assay: P. yoelii sporozoite challenge in mice; parameters: species or system Swiss mice
Protocol: All animal were kept and used in accordance with institutional guidelines and European regulations. Female 6-wk-old Swiss mice (René Janvier, Le Genest-Saint-Isle, France) weighing 24–31 g were randomly allotted to five groups. The drug to be tested was administered orally. Tazopsine was diluted in sterile water and NCP-tazopsine in sterile water with 10% of Tween 80 (Aldrich, Le Chesnay, France). The drugs were administrated on days −1, 0, +1, +2 (+40 h), and the mice challenged on day 0 by retro-orbital injection of P. yoelii (265 BY strain) sporozoites. Group 1 received 100 mg/kg/day of tazopsine (n = 5), and group 2 received sterile water at the same times (controls, n = 5); groups 1 and 2 were challenged with 4,000 sporozoites. Group 3 received 100 mg/kg/d of NCP-tazopsine (n = 5), group 4 received 200 mg/kg/d of NCP-tazopsine (n = 8), and group 5 received 10% Tween in sterile water (controls, n = 5); groups 3, 4, and 5 were challenged with 10,000 sporozoites. Parasites were enumerated by blinded microscopic examination of Giemsa-stained tail-blood smears collected from day 2 to day 23 postinoculation. A mouse was considered negative when no parasites could be observed in 20,000 red blood cells (50 fields under a 50× light microscope objective) on any day during the period of observation. The results presented were derived from two independent duplicate experiments.

[4] = test system: P. falciparum clone FCR3 (chloroquine resistant) erythrocytic stages; assay: In vitro assay for P. falciparum blood stages inhibition, clone FCR3; format: cell-based
Protocol: (§1) P. falciparum clone 3D7 (chloroquine sensitive) and clone FCR3 (chloroquine resistant) erythrocytic stages were cultured as described, and drug antiplasmodial activity was assessed by the standard method with minor modifications. Briefly, the compounds tazopsine and NCP-tazopsine solubilized in DMSO were further diluted in RPMI before adding to parasite cultures (0.5% parasitemia, mainly young trophozoites, and 1.8% final hematocrit), in a 2-fold dilution series. Plates were maintained for 24 h at 37 °C in 5% CO2. Then 0.5 μCi of [^3H]-hypoxanthine was added to each well, and cultures were incubated for a further 24 h. The growth inhibition was determined by comparison of the radioactivity incorporated into the treated cultures with that into the control cultures, by liquid scintillation counting.

[5] = test system: primary human hepatocytes; assay: In vitro assay for cell viability (neutral red), human hepatocytes; format: cell-based; conditions: 5 d drug exposure
Protocol: Primary hepatocytes of mice or humans were prepared as above and seeded in 96-well plates coated with collagen, at a density of 5 × 10^4 and 7 × 10^4 cells per well, respectively. Drugs were added to the culture medium, which was changed daily after 24 h or 48 h of incubation for mouse and human hepatocytes, respectively. After 48 h of drug exposure (mouse hepatocytes) or 5 d (human hepatocytes), 50 μl of neutral red (Sigma) at 0.02% in phosphate-buffered saline (PBS) were added per well and incubated for 24 additional hours. Cultures were then washed with PBS and the neutral red extracted with 1% SDS from viable cells and quantified by measuring the OD540 on a microplate autoreader photometer (BioTek Instruments, Winooski, Vermont, United States).
IC50 and TC50 were calculated by nonlinear regression using four-parameter logistic curves on the SigmaPlot 10.0 software (http://www.systat.com). Each IC50 or TC50 is expressed as a mean between two independent experiments, followed by the standard error of the mean.

[6] = test system: P. falciparum clone 3D7 (chloroquine sensitive) erythrocytic stages; assay: In vitro assay for P. falciparum blood stages inhibition, clone 3D7; format: cell-based
Protocol: as §1

[7] = 100 mg/kg daily for 4 d oral, challenge with 4,000 P. yoelii sporozoites

Compound | effect on blood stage parasite multiplication ([1]; fully protective dose (200 mg/kg), mice inoculated with P. yoelii-infected blood (unpublished data)) | toxicity to mice ([2]; up to doses of 400 mg/kg for 4 d) | extension of prepatent period over controls (nonprotected mice) ([3]; 100 mg/kg for 4 d oral, 10,000 sporozoites) [days] | mice protected from infection ([3]; 100 mg/kg for 4 d oral, challenge with 10,000 P. yoelii sporozoites) [%] | mice developing a blood stage infection / protection after sporozoite challenge ([3]; 200 mg/kg daily over 4 d oral, challenge with 10,000 P. yoelii sporozoites) | effect on multiplication of cultured erythrocytic P. falciparum ([4]; FCR3 line, up to concentrations of 600 μM) | TC50 [5] | effect on multiplication of cultured erythrocytic P. falciparum ([6]; 3D7 line, up to concentrations of 600 μM) | inhibition of the erythrocytic multiplication cycle ([1]; 100 mg/kg daily, mice challenged with P. yoelii-infected blood (unpublished data)) | oral dose above which toxic to mice ([2]; given daily over 4 d) | extension of prepatent period over controls (nonprotected mice) ([3]; 100 mg/kg daily for 4 d oral, 4,000 sporozoites) | mice protected from infection [3, 7] [%] | mice that developed a blood stage parasitemia [3, 7] [%] | IC50 ([4]; Plasmodium falciparum, FCR3) [µM] | IC50 ([6]; Plasmodium falciparum, 3D7) [µM]
COC1=C2[C@@H]3[C@H](O)c4ccc(OC)c(O)c4[C@]2(CCN3C2CCCC2)C[C@H](O)[C@@H]1O [NCP-tazopsine, N-cyclopentyl-tazopsine] | no effect | not found to be toxic | 2 | 60 | completely protected; also recorded: none of the mice developed a blood stage infection; also recorded: fully protected | did not have any detectable effect | 2,549.6 ± 307.6 μM | did not have any detectable effect |  |  |  |  |  |  | 
COC1=C2[C@H]3NCC[C@]2(C[C@H](O)[C@@H]1O)c1c(ccc(OC)c1O)[C@H]3O [Tazopsine, tazopsine] |  |  |  |  |  |  | 28.4 ± 4.3 µM |  | No significant inhibition | exceeding 100 mg/kg | about 4 d | 70 | 30 | 5.7 ± 2.1 | 4.7 ± 0.9
